From US20130224239A1, “ALCOHOLIC EXTRACT OF FUNGI OF GENUS […] AND USE THEREOF” (KING SAUD UNIVERSITY, priority 2011, published 2013)
Converted amounts (≈) assume the structure as drawn. “Also recorded” adds a separate entry of the source. Marks after values point to notes of the source that are not given here.

Experiments:
[1] = system: Staphylococcus aureus infected wounds; test: Wound healing activity, excision wound model; format: in vivo, guinea pig
Experimental: Swiss albino mice (20-25 g), male Sprague-Dawley rats (160-180 g) and male guinea pigs (240-260 g) were employed in the study. The animals were left for 2 weeks at room conditions to ensure stabilization before use. They were maintained on standard pellet diet and water ad libitum throughout the experiment. • a) Acute Toxicity: Mice were divided into groups of 6 and the methanol extracts of C. blakesleeana, C. elegans and C. homothallica were administered orally in increasing doses. […] Rats of the 1^St group were given a vehicle (1% v/v Tween 80) in a dose of 5 ml kg^−1 and left as normal control. Rats of the 2nd, 3rd, and 4th groups were administered the methanol extracts of C. blakesleeana, C. elegans and C. homothallica, respectively in a dose of 200 mg kg^−1. All medications were administered orally via the aid of an oral tube for 35 days. […] At the end of the experimental period, blood samples (2 mL) were collected from the retro-orbital venous plexus of each rat (under ether anesthesia) into clean centrifuge tubes. The blood samples were allowed to clot at room temperature for 30 min after which they were centrifuged at 10,000 rpm for 5 minutes. Sera were separate with Pasteur pipette into sterile serum sample tubes and used for biochemical assay.
Measurement of Liver and Kidney Function Markers: • Liver functions were evaluated by measuring the serum activity of aspartate aminotransferase (AST) and alanine aminotransferase (ALT) following the method of Reitman and Frankel, Am. J. Clin. Path., 28: 55-60, alkaline phosphatase enzyme (ALP) by the method of Babson et al., Clinical Chemistry, 12: 482-490. Serum levels of total bilirubin, total proteins and albumin were also assayed. Globulin was obtained from the difference between total proteins and albumin. Serum concentrations of uric acid, urea and creatinine were determined colormetrically as measures of kidney functions. All measurements were carried out by protocols well known in the art. • c) Wound Healing Activity: The excision wound model was used to monitor wound contraction and wound closure time. Four groups of male guinea pigs were used in the experiment with 6 animals in each group. At the beginning of the experiment, the dorsal skin of each guinea pig was shaved with an electric clipper. After 24 hours, all animals were anesthetized by diethyl ether and the shaved areas were sterilized with 70% alcoholic solution. A predetermined dorsal area (15 mm×20 mm) was inflicted by cutting away a full thickness of skin (2 mm depth) using toothed forceps, scalpel and pointed scissors. A fresh surgical blade was used for the perpendicular cut in each animal and tension of skin was kept constant during the procedure. Local infection with Staphylococcus aureus was introduced into wounds using 0.5 mL of 10^8 bacteria mL^−1 inoculums. The wounds were left undressed to the open environment and the animals were kept individually in separate cages. • Wounds treatment: Wounds were air exposed and treatment began 24 h after injury. Wounds of the control animals were treated with the vehicle (1% v/v Tween 80). Guinea pigs of the second and third group were treated with total alcohol extract of C. elegans and the isolated compound (adenosine) in a concentration of 5 mg mL^−1, while animals of the fourth group were medicated with latamoxef (Moxalactam)® in a concentration of 30 μg mL^−1 (Reference group). The vehicle, extract, and reference drug were applied topically on the wound surface once a day for 18 days. […] of each tested material was applied slowly, using an insulin syringe, from the central point extending outside the wound area to ensure inclusion of the edges. Swabs were taken on day 5 to confirm the presence of the expected organisms in the pus. • Assessment of wound healing: The wound areas were measured while the animals were under anaesthesia on days 0, 4, 7, 10, 14, and 18 post-wounding by tracing the wound areas onto a transparent tracing paper. […]

Staphylococcus aureus = test: Minimum inhibitory concentration, agar well diffusion; format: cell-based; settings: against Staphylococcus aureus
Excerpt: For antimicrobial screening the well known disc diffusion and agar well diffusion methods were used, together with the determination of minimum inhibitory concentration (MIC), see Duguid et al., Microbial Infections, The English Language Book Society, Churchill Livingston, Edingburgh, London, 1978; vol. 1, page 110.
Agar well diffusion method: On the other hand, the agar well diffusion method was employed for determination of the minimum inhibitory concentration (MIC). The test organisms were separately seeded in the agar medium. The wells (10 mm in diameter) were cut from the agar and […] (different concentrations) was transferred into them. After incubation period, following suitable conditions for the test organism, the diameter of the inhibition zone around the discs was measured in millimeters. The obtained result was the mean of three experiments.
The minimum inhibitory concentration (MIC) of Cunninghamella blakesleeana, C. elegans, C. homothallica and successive extracts and isolated compounds of Cunninghamella elegans against Staphylococcus aureus was determined.
Minimum inhibitory concentration (MIC): The lowest concentration of an antimicrobial agent that will inhibit a visible growth of a microorganism after overnight incubation.

[2] = topical 5 mg mL^−1 once a day, n = 6
[3] = topical 5 mg mL^−1 once a day, n = 6, listed as compound 1 (adenosine)

Nc1ncnc2c1ncn2C1OC(CO)C(O)C1O (stereo not shown) [Compound 4, 2-(6-amino-9H-purine-9-yl)-5-(hydroxymethyl)oxolane-3,4-diol]
wound contraction ([1]; Day 14, topical 5 mg mL^−1): 76.50%
Wound area on day 0 ([1]; day 0, topical 5 mg mL^−1 once a day, n = 6): 300 ± 0.0 mm^2
Wound area on day 4 ([1]; day 4, topical 5 mg mL^−1 once a day, n = 6): 241.2 ± 4.23* mm^2
Wound area on day 7 ([1]; day 7, topical 5 mg mL^−1 once a day, n = 6): 168.1 ± 2.18** mm^2
Wound area on day 10 [1, 2]: 83.4±3.16 mm^2
Wound area on day 10 [1, 3]: 85.6 ± 4.13*** mm^2
Wound area on day 14 [1, 2]: 22.4±1.15 mm^2
Wound area on day 14 [1, 3]: 23.3 ± 1.11*** mm^2
Wound area on day 18 [1, 2]: 0.0 mm^2
Wound area on day 18 [1, 3]: 0.0 ± 0.0 mm^2
wound healing effect (in words) ([1]; topical 5 mg mL−1 on excised infected wound): effective in healing excision type of wounds; also recorded: good wound healing effect
Minimum inhibitory concentration (Staphylococcus aureus): 020 µg/mL (≈ 74.8 µM)
MIC (Staphylococcus aureus; read-out: Minimum inhibitory concentration): 20 µg/mL (≈ 74.8 µM)
